Among the data in US7989657B2, “Anthranilic acid derivatives” (Hoffmann-La Roche Inc., priority 2005, dated 2011) are EC50 and melting point values, retold here.

Data set [1] has as its target T1, HM74A (Homo sapiens, UniProt Q8TDS4).
T1 construct: expressed in transfected cells; host or cells: HEK-293, stably transfected with pcDNA3.1 vectors
Briefly: Secondary fluorescent calcium indicator assay (FLIPR). The class given is cell-based. Particulars: stable transfected HEK-293 cells expressing HM74A and chimeric G protein Gqi9; % stimulation of maximal nicotinic acid response (100 μM). How it is done: Secondary Fluorescent Calcium Indicator Assay (FLIPR)
HEK-293 cells were grown in tissue culture medium (DMEM/Nut mix F12 Medium with Glutamax I (Invitrogen), containing 10% FBS) at 37° C. in a 5% CO2 atmosphere. These cells were cultured in 6-well dishes at 3×10^5 cells/well and double transfected with DNA vectors (pcDNA3.1, Invitrogen) expressing either HM74A or HM74 and the chimeric G protein Gqi9. Two days after transfection the wells were combined and plated in 150 cm^2 flasks, in the presence of 50 μg/ml Hygromycin (Invitrogen) and 500 μg/ml Geneticin (Gibco). Fourteen days after plating, colonies were picked, expanded and analyzed for expression using a functional assay (FLIPR). Stable transfected HEK-293 cells expressing either HM74A or HM74 and the chimeric G protein Gqi9 were plated at 50,000 cells/well in black 96-well plates with clear bottom (Costar) and cultured to confluency overnight in growth media (DMEM/Nut mix F12 Medium with Glutamax I (Invitrogen), containing 10% FBS) at 37° C. in a humidified cell incubator containing 5% CO2. Growth media was aspirated and replaced with 100 μl of 1×FLIPR Calcium Assay Dye (Molecular Devices) in Hank's balanced salt solution (HBSS) containing 10 mM HEPES, and […] probenecid (Sigma), for 1 hour at 37° C. Cell plates were transferred to a FLIPR unit (Molecular Devices), and 50 μl of 3× compound dilution were added. Fluorescence emissions were measured and the effects of compounds were expressed as % stimulation of maximal nicotinic acid response (100 μM). Sigmoidal curves were fitted using the XLfit3 program (ID Business Solutions Ltd. UK) and EC50 values determined.

T1 sequence (Q8TDS4 whole entry): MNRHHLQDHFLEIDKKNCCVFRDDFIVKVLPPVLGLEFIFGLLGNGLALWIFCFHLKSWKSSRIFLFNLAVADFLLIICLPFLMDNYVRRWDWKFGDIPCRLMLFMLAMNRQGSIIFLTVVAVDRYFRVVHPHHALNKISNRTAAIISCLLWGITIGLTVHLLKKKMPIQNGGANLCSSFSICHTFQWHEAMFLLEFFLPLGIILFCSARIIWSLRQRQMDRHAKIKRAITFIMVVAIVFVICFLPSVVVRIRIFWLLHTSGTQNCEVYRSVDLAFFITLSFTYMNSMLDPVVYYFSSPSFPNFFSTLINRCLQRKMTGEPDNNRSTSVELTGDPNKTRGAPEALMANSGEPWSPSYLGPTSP

Usually EC50 stands for the midpoint of the concentration-response curve. On to “2-[4-(4-Fluoro-phenoxy)-benzoylamino]-benzoic acid [Example 2]”, for which the concentration for a half-maximal effect (EC50) in data set [1] came out at 1100 nM. On the same count and under the same terms, under `O=C(Nc1ccccc1C(=O)O)c1ccc(Oc2cccc(Cl)c2)cc1` [Example 17, 2-[4-(3-Chloro-phenoxy)-benzoylamino]-benzoic acid] stands 529 nM; under `O=C(Nc1ccccc1C(=O)O)c1ccc(Oc2cc(F)ccc2F)cc1` [Example 29, 2-[4-(2,5-Difluoro-phenoxy)-benzoylamino]-benzoic acid], 101 nM. In general, melting point refers to the temperature of the solid-liquid transition. `Cc1cc(C(=O)Nc2ccccc2C(=O)O)ccc1Oc1ccccc1` [Example 30, 2-(3-Methyl-4-phenoxy-benzoylamino)-benzoic acid] came in with a melting point of 123 °C.
